From the NIST ThermoML archive (doi:10.1016/j.tca.2013.02.022)

Assay: cn = amount concentration of the nth substance listed, in mol/dm3
Settings: 298.15 K, 101 kPa, Liquid, Alternating current cell with electrodes

CCn1cc[n+](C)c1.[Br-] [1-ethyl-3-methylimidazolium bromide] + CC#N
Settings | molar conductivity [S·m2/mol]
c1 = 0.000941 | 0.0155
c1 = 0.001725 | 0.0152
c1 = 0.002388 | 0.015
c1 = 0.002957 | 0.0149
c1 = 0.003994 | 0.0146
c1 = 0.0046 | 0.0145
c1 = 0.005175 | 0.0144
c1 = 0.005645 | 0.0143
c1 = 0.006038 | 0.0143
c1 = 0.006369 | 0.0142
c1 = 0.006654 | 0.0142
c1 = 0.007011 | 0.0141
c1 = 0.007656 | 0.014
c1 = 0.007998 | 0.0139
c1 = 0.008433 | 0.0139

CCn1cc[n+](C)c1.[Br-] [1-ethyl-3-methylimidazolium bromide] + CC(=O)N(C)C
Settings | molar conductivity [S·m2/mol]
c1 = 0.000995 | 0.00429
c1 = 0.001858 | 0.004
c1 = 0.002527 | 0.00377
c1 = 0.003129 | 0.00364
c1 = 0.003697 | 0.00354
c1 = 0.004106 | 0.00348
c1 = 0.004509 | 0.00335
c1 = 0.005187 | 0.0032
c1 = 0.005736 | 0.00309
c1 = 0.005973 | 0.00305
c1 = 0.006388 | 0.003
c1 = 0.0073 | 0.00283
c1 = 0.007821 | 0.00273
c1 = 0.008279 | 0.0027
c1 = 0.008995 | 0.00254

CCn1cc[n+](C)c1.[Br-] [1-ethyl-3-methylimidazolium bromide] + CN(C)C=O
Settings | molar conductivity [S·m2/mol]
c1 = 0.001828 | 0.00732
c1 = 0.002531 | 0.0071
c1 = 0.003133 | 0.0069
c1 = 0.003655 | 0.00675
c1 = 0.004225 | 0.00667
c1 = 0.004874 | 0.00652
c1 = 0.005483 | 0.00643
c1 = 0.005981 | 0.0063
c1 = 0.006397 | 0.00622
c1 = 0.006905 | 0.00616
c1 = 0.007429 | 0.0061
c1 = 0.007833 | 0.00604
c1 = 0.008291 | 0.00593
c1 = 0.008681 | 0.00587
c1 = 0.009008 | 0.00584

CCn1cc[n+](C)c1.[Br-] [1-ethyl-3-methylimidazolium bromide] + CO
Settings | molar conductivity [S·m2/mol]
c1 = 0.001828 | 0.00814
c1 = 0.002264 | 0.00804
c1 = 0.002683 | 0.00795
c1 = 0.003262 | 0.00784
c1 = 0.003528 | 0.00779
c1 = 0.004007 | 0.00771
c1 = 0.004303 | 0.00765
c1 = 0.004622 | 0.0076
c1 = 0.004858 | 0.00757
c1 = 0.005093 | 0.00753
c1 = 0.005282 | 0.0075
c1 = 0.005565 | 0.00746
c1 = 0.005822 | 0.00743
c1 = 0.006122 | 0.00739
c1 = 0.006338 | 0.00736

CCn1cc[n+](C)c1.[Br-] [1-ethyl-3-methylimidazolium bromide] + C[S+](C)[O-]
Settings | molar conductivity [S·m2/mol]
c1 = 0.002105 | 0.00246
c1 = 0.003858 | 0.00225
c1 = 0.005342 | 0.00209
c1 = 0.006614 | 0.00198
c1 = 0.007717 | 0.0019
c1 = 0.008681 | 0.00182
c1 = 0.009532 | 0.00177
c1 = 0.01097 | 0.00166
c1 = 0.01213 | 0.00158
c1 = 0.0135 | 0.0015
c1 = 0.01458 | 0.00144
c1 = 0.01614 | 0.00136
c1 = 0.01721 | 0.0013
c1 = 0.01812 | 0.00126
c1 = 0.01902 | 0.00122
